Assay results taken from patent US6831075B2, “Heterocyclic substituted pyrazolones” (Cephalon, Inc., priority 1999, dated 2004).

Legend:
Format in all cases: biochemical
[1] = molecular target: T1, recombinant human baculovirus-expressed VEGFR1 cytoplasmic domain (Homo sapiens, UniProt P17948); test: VEGFR1 kinase inhibition assay (ELISA-based, time-resolved fluorescence); settings: 1 uM compound, 30 μM ATP
T1 construct: recombinant human baculovirus-expressed VEGFR1 cytoplasmic domain; host or cells: baculovirus expression system
T1 sequence (P17948 781-1338 limits assumed): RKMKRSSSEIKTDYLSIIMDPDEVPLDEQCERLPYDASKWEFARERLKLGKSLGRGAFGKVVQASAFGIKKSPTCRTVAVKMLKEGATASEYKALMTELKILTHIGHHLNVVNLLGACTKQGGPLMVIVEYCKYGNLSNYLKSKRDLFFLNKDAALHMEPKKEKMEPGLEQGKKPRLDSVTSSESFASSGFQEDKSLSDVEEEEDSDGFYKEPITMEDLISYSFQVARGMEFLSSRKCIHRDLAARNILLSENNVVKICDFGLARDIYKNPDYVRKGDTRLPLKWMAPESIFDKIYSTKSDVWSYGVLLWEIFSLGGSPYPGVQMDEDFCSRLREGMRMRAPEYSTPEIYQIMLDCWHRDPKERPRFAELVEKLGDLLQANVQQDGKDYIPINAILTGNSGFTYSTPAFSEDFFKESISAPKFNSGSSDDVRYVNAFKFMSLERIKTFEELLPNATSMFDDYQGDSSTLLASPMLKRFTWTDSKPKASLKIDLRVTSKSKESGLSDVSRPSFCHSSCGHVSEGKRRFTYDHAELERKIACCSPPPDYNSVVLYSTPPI
In short: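 Prephosphorylated baculovirus-expressed VEGFR1 cytoplasmic domain (300 ng/ml) phosphorylates plate-bound PLC-γ/GST with 30 μM ATP, 10 mM MnCl2, pH 7.4, 15 min at 37 °C. Compounds tested at 1 μM. Phosphotyrosine detected with europium anti-phosphotyrosine antibody by time-resolved fluorescence.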

[2] = molecular target: T2, baculovirus-expressed human trkA cytoplasmic domain (Homo sapiens, UniProt P04629); test: trkA tyrosine kinase inhibition assay (ELISA-based); settings: 1 uM compound; 40 μM ATP
T2 construct: baculovirus-expressed human trkA cytoplasmic domain; host or cells: baculovirus expression system
In short: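 ELISA with PLC-γ1/GST fusion substrate coated on plate; kinase reaction in 50 mM Hepes pH 7.4, 40 μM ATP, 10 mM MnCl2, 0.1% BSA, 2% DMSO, 15 min at 37°C, started by enzyme. Phosphotyrosine detected by anti-phosphotyrosine and alkaline phosphatase secondary antibody with amplified read-out; inhibition fitted by variable-slope sigmoidal dose-response.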

[3] = molecular target: T3, baculoviral GST-MLK3KD (Homo sapiens, UniProt Q16584); test: Mixed Lineage Kinase-3 inhibition assay (Millipore Multiscreen plate, 32P); settings: 1 uM compound, 100 μM ATP
T3 construct: 2 μg/ml of baculoviral GST-MLK3KD; GST (N); host or cells: baculovirus expression system
In short: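 Radiometric filter-plate assay: 2 μg/ml baculoviral GST-MLK3KD with 500 μg/ml myelin basic protein, 100 μM ATP plus [γ-32P]ATP, in 20 mM Hepes pH 7, 10 mM MgCl2, 1 mM DTT, 2% DMSO. Incubated 15 min at 37 °C, stopped and precipitated with cold TCA, washed, then scintillation counted.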

[4] = molecular target: T4, recombinant human baculovirus-expressed FGFR1 cytoplasmic domain (Homo sapiens, UniProt P11362); test: FGFR1 kinase inhibition assay (ELISA-based, time-resolved fluorescence); settings: 1 uM compound; 20 μM ATP
T4 construct: recombinant human baculovirus-expressed FGFR1 cytoplasmic domain; host or cells: baculovirus expression system
In short: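 Prephosphorylated baculovirus FGFR1 cytoplasmic domain (15 ng/ml) phosphorylated plate-coated PLC-γ/GST with 20 μM ATP, 10 mM MnCl2, HEPES pH 7.4, 2% DMSO, 15 min at 37 °C. Compounds tested at 1 μM. Phosphotyrosine detected with europium-labelled antibody by time-resolved fluorescence.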

T3 sequence (Q16584 117-379 limits assumed): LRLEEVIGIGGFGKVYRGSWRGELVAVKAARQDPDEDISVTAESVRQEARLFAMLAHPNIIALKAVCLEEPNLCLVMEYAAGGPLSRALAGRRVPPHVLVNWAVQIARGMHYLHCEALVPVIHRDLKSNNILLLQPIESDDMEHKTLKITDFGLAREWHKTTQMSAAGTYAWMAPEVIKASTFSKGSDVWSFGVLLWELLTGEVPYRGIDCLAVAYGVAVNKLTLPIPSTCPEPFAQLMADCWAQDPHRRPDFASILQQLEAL
T2 sequence (P04629 440-796 limits assumed): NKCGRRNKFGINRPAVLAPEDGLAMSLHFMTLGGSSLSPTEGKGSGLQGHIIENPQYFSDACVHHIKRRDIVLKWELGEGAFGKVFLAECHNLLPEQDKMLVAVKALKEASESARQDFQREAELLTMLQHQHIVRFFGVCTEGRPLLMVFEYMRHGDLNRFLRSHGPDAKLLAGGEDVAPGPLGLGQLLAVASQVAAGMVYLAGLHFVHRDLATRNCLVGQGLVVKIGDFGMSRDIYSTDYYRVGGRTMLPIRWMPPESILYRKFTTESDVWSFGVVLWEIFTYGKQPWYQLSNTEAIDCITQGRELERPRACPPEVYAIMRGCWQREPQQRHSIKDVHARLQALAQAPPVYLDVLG
T4 sequence (P11362 398-822 limits assumed): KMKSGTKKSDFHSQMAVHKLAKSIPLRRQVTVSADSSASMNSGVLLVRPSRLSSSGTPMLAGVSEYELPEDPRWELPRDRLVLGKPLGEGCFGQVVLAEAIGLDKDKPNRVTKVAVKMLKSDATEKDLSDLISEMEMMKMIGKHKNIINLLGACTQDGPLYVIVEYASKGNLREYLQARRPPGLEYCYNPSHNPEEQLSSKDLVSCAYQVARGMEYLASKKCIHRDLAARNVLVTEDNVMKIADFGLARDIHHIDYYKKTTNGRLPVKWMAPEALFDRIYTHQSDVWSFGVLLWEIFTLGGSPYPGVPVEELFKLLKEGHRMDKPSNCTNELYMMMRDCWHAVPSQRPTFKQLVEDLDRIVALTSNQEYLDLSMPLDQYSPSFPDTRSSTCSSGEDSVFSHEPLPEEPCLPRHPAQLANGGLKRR

Compound: O=C1NN=C(c2nccs2)C1=Cc1cn(Cc2ccccc2)c2ccccc12 [Compound 70]
- VEGFR-1 kinase % inhibition @ 1 uM [1]: 1%
- trkA % inhibition @ 1 uM [2]: 32%
- MLK-3 Kinase % inhibition @ 1 uM [3]: 15%
- FGFR1 % inhibition @ 1 uM [4]: 21%

Compound: O=C1NN=C(c2ccco2)C1=Cc1cn(CCOCc2ccccc2)c2ccccc12 [Compound 71]
- VEGFR-1 kinase % inhibition @ 1 uM [1]: 12%
- trkA % inhibition @ 1 uM [2]: 15%
- MLK-3 Kinase % inhibition @ 1 uM [3]: 9%
- FGFR1 % inhibition @ 1 uM [4]: 26%

Compound: O=C1NN=C(c2nccs2)C1=Cc1cn(CCOCc2ccccc2)c2ccccc12 [Compound 72]
- VEGFR-1 kinase % inhibition @ 1 uM [1]: 12%
- trkA % inhibition @ 1 uM [2]: 38%
- MLK-3 Kinase % inhibition @ 1 uM [3]: 28%
- FGFR1 % inhibition @ 1 uM [4]: 29%

Compound: CC(C)Cn1cc(C=C2C(=O)NN=C2c2nccs2)c2ccccc21 [Compound 73]
- VEGFR-1 kinase % inhibition @ 1 uM [1]: 12%
- trkA % inhibition @ 1 uM [2]: 8%
- MLK-3 Kinase % inhibition @ 1 uM [3]: 5%
- FGFR1 % inhibition @ 1 uM [4]: 19%

Compound: Cc1cc(C)c(C=C2C(=O)NN=C2c2cnccn2)[nH]1 [Compound 74, 4-[(3,5-dimethylpyrrol-2-yl)methylene]-3-pyrazin-2-yl-2-pyrazolin-5-one]
- inhibition at 1 µM ([1]; read-out: VEGFR-1 kinase % inhibition @ 1 uM): 74%
- inhibition at 1 µM [2]: 53%
- inhibition at 1 µM ([3]; read-out: MLK-3 Kinase % inhibition @ 1 uM): 72%
- inhibition at 1 µM [4]: 48%

Compound: O=C1NN=C(c2cccs2)C1=Cc1cn(Cc2ccccc2)c2ccccc12 [Compound 75]
- VEGFR-1 kinase % inhibition @ 1 uM [1]: 5%
- trkA % inhibition @ 1 uM [2]: 23%
- MLK-3 Kinase % inhibition @ 1 uM [3]: 24%
- FGFR1 % inhibition @ 1 uM [4]: 26%
